Laboratory results from patent US20220248678A1, “HERBICIDAL COMPOUNDS” (SYNGENTA CROP PROTECTION AG, priority 2019, published 2022).

Key:
Experiment in all cases: Post-emergence efficacy, glasshouse
Assay type in all cases: in vivo
Details in all cases: after 13 days, 100=total damage to plant, 0=no damage to plant
[1] = system: Amaranthus palmeri (AMAPA)
Procedure: (§1) Seeds of a variety of test species were shown in standard soil in pots. After cultivation for 14 days (post-emergence) under controlled conditions in a glasshouse (at 24/16° C., day/night; 14 hours light; 65% humidity), the plants were sprayed with an aqueous spray solution derived from the dissolution of the technical active ingredient for each of compounds 1 to 26 from Table A above, in a small amount of acetone and a special solvent and emulsifier mixture referred to as IF50 (11.12% Emulsogen EL360 TM+44.44% N-methylpyrrolidone+44.44% Dowanol DPM glycol ether), to create a 50 g/I solution which was then diluted to required concentration using 0.25% or 1% Empicol ESC70 (Sodium lauryl ether sulphate)+1% ammonium sulphate in water as diluent. These spray test compositions are described as composition numbers C1 to C26, with the numerical value corresponding to the compound number from Table A.
(§2) The test plants were then grown in a glasshouse under controlled conditions (at 24/16° C., day/night; 14 hours light; 65% humidity) and watered twice daily. After 13 days the test was evaluated (100=total damage to plant; 0=no damage to plant).
(§3) Ipomoea hederacea (IPOHE), Euphorbia heterophylla (EPHHL), Chenopodium album (CHEAL), Amaranthus palmeri (AMAPA), Lolium perenne (LOLPE), Digitaria sanguinalis (DIGSA), Eleusine indica (ELEIN), Echinochloa crus-galli (ECHCG), Setaria faberi (SETFA)

[2] = system: Chenopodium album (CHEAL)
Procedure: as §1, §2, §3

[3] = system: Euphorbia heterophylla (EPHHL)
Procedure: as §1, §2, §3

Lolium perenne (LOLPE) = system: Lolium perenne (LOLPE)
Procedure: as §1, §2, §3

Eleusine indica (ELEIN) = system: Eleusine indica (ELEIN)
Procedure: as §1, §2, §3

[4] = system: Ipomoea hederacea (IPOHE)
Procedure: as §1, §2, §3

Setaria faberi (SETFA) = system: Setaria faberi (SETFA)
Procedure: as §1, §2, §3

[5] = system: Echinochloa crus-galli (ECHCG)
Procedure: as §1, §2, §3

[6] = system: Digitaria sanguinalis (DIGSA)
Procedure: as §1, §2, §3

COc1ccc2c(P(=O)([O-])OC)c[n+](C)nc2c1 [Composition C17]
Control of weed species AMAPA ([1]; 1000 g/Ha): 10 | Control of weed species CHEAL ([2]; 1000 g/Ha): 10 | Control of weed species EPHHL ([3]; 1000 g/Ha): 20 | Control of weed species LOLPE (Lolium perenne (LOLPE); 1000 g/Ha): 0 | Control of weed species ELEIN (Eleusine indica (ELEIN); 1000 g/Ha): 10 | Control of weed species IPOHE ([4]; 1000 g/Ha): 10 | Control of weed species SETFA (Setaria faberi (SETFA); 1000 g/Ha): 10 | Control of weed species ECHCG ([5]; 1000 g/Ha): 10 | Control of weed species DIGSA ([6]; 1000 g/Ha): 10

COc1cccc2c(P(=O)([O-])OC)c[n+](C)nc12 [Composition C18]
Control of weed species AMAPA ([1]; 1000 g/Ha): 100 | Control of weed species CHEAL ([2]; 1000 g/Ha): 80 | Control of weed species EPHHL ([3]; 1000 g/Ha): 100 | Control of weed species LOLPE (Lolium perenne (LOLPE); 1000 g/Ha): 80 | Control of weed species ELEIN (Eleusine indica (ELEIN); 1000 g/Ha): 100 | Control of weed species IPOHE ([4]; 1000 g/Ha): 80 | Control of weed species SETFA (Setaria faberi (SETFA); 1000 g/Ha): 100 | Control of weed species ECHCG ([5]; 1000 g/Ha): 100 | Control of weed species DIGSA ([6]; 1000 g/Ha): 100

COP(=O)([O-])c1c[n+](C)nc2ccc(C(F)(F)F)cc12 [Composition C19]
Control of weed species AMAPA ([1]; 500 g/Ha): 10 | Control of weed species CHEAL ([2]; 500 g/Ha): 10 | Control of weed species EPHHL ([3]; 500 g/Ha): 0 | Control of weed species LOLPE (Lolium perenne (LOLPE); 500 g/Ha): 10 | Control of weed species ELEIN (Eleusine indica (ELEIN); 500 g/Ha): 10 | Control of weed species IPOHE ([4]; 500 g/Ha): 0 | Control of weed species SETFA (Setaria faberi (SETFA); 500 g/Ha): 10 | Control of weed species ECHCG ([5]; 500 g/Ha): 10 | Control of weed species DIGSA ([6]; 500 g/Ha): 10

COP(=O)([O-])c1c[n+](C)nc2cc(C(F)(F)F)ccc12 [Composition C20]
Control of weed species AMAPA ([1]; 1000 g/Ha): 40 | Control of weed species CHEAL ([2]; 1000 g/Ha): 40 | Control of weed species EPHHL ([3]; 1000 g/Ha): 30 | Control of weed species LOLPE (Lolium perenne (LOLPE); 1000 g/Ha): 10 | Control of weed species ELEIN (Eleusine indica (ELEIN); 1000 g/Ha): 10 | Control of weed species IPOHE ([4]; 1000 g/Ha): 60 | Control of weed species SETFA (Setaria faberi (SETFA); 1000 g/Ha): 10 | Control of weed species ECHCG ([5]; 1000 g/Ha): 10 | Control of weed species DIGSA ([6]; 1000 g/Ha): 20

CCCOP(=O)([O-])c1c[n+](C)nc2ccccc12 [Composition C21]
Control of weed species AMAPA ([1]; 500 g/Ha): 100 | Control of weed species CHEAL ([2]; 500 g/Ha): 100 | Control of weed species EPHHL ([3]; 500 g/Ha): 100 | Control of weed species LOLPE (Lolium perenne (LOLPE); 500 g/Ha): 70 | Control of weed species ELEIN (Eleusine indica (ELEIN); 500 g/Ha): 100 | Control of weed species IPOHE ([4]; 500 g/Ha): 100 | Control of weed species SETFA (Setaria faberi (SETFA); 500 g/Ha): 100 | Control of weed species ECHCG ([5]; 500 g/Ha): 70 | Control of weed species DIGSA ([6]; 500 g/Ha): 100

C[n+]1cc(P(=O)([O-])OCc2ccccc2)c2ccccc2n1 [Composition C22]
Control of weed species AMAPA ([1]; 500 g/Ha): 10 | Control of weed species CHEAL ([2]; 500 g/Ha): 20 | Control of weed species EPHHL ([3]; 500 g/Ha): 60 | Control of weed species LOLPE (Lolium perenne (LOLPE); 500 g/Ha): 10 | Control of weed species ELEIN (Eleusine indica (ELEIN); 500 g/Ha): 60 | Control of weed species IPOHE ([4]; 500 g/Ha): 20 | Control of weed species SETFA (Setaria faberi (SETFA); 500 g/Ha): 30 | Control of weed species ECHCG ([5]; 500 g/Ha): 20 | Control of weed species DIGSA ([6]; 500 g/Ha): 60

C[n+]1cc(P(=O)([O-])OCc2ccc(F)cc2)c2ccccc2n1 [Composition C23]
Control of weed species AMAPA ([1]; 125 g/Ha): 20 | Control of weed species CHEAL ([2]; 125 g/Ha): 10 | Control of weed species EPHHL ([3]; 125 g/Ha): 40 | Control of weed species LOLPE (Lolium perenne (LOLPE); 125 g/Ha): 10 | Control of weed species ELEIN (Eleusine indica (ELEIN); 125 g/Ha): 40 | Control of weed species IPOHE ([4]; 125 g/Ha): 10 | Control of weed species SETFA (Setaria faberi (SETFA); 125 g/Ha): 30 | Control of weed species ECHCG ([5]; 125 g/Ha): 30 | Control of weed species DIGSA ([6]; 125 g/Ha): 60

C[n+]1cc(P(=O)([O-])OCC2CCCO2)c2ccccc2n1 (stereo not drawn) [Composition C25]
Control of weed species AMAPA ([1]; 1000 g/Ha): 100 | Control of weed species CHEAL ([2]; 1000 g/Ha): 90 | Control of weed species EPHHL ([3]; 1000 g/Ha): 80 | Control of weed species LOLPE (Lolium perenne (LOLPE); 1000 g/Ha): 60 | Control of weed species ELEIN (Eleusine indica (ELEIN); 1000 g/Ha): 100 | Control of weed species IPOHE ([4]; 1000 g/Ha): 60 | Control of weed species SETFA (Setaria faberi (SETFA); 1000 g/Ha): 80 | Control of weed species ECHCG ([5]; 1000 g/Ha): 90 | Control of weed species DIGSA ([6]; 1000 g/Ha): 50

CC(C)COP(=O)([O-])c1c[n+](C)nc2ccccc12 [Composition C26]
Control of weed species AMAPA ([1]; 1000 g/Ha): 100 | Control of weed species CHEAL ([2]; 1000 g/Ha): 90 | Control of weed species EPHHL ([3]; 1000 g/Ha): 100 | Control of weed species LOLPE (Lolium perenne (LOLPE); 1000 g/Ha): 40 | Control of weed species ELEIN (Eleusine indica (ELEIN); 1000 g/Ha): 90 | Control of weed species IPOHE ([4]; 1000 g/Ha): 60 | Control of weed species SETFA (Setaria faberi (SETFA); 1000 g/Ha): 90 | Control of weed species ECHCG ([5]; 1000 g/Ha): 60 | Control of weed species DIGSA ([6]; 1000 g/Ha): 60

COP(=O)([O-])c1c[n+](C)nc2ccccc12 [Composition C27]
Control of weed species AMAPA ([1]; 500 g/Ha): 100 | Control of weed species CHEAL ([2]; 500 g/Ha): 100 | Control of weed species EPHHL ([3]; 500 g/Ha): 100 | Control of weed species LOLPE (Lolium perenne (LOLPE); 500 g/Ha): 90 | Control of weed species ELEIN (Eleusine indica (ELEIN); 500 g/Ha): 100 | Control of weed species IPOHE ([4]; 500 g/Ha): 90 | Control of weed species SETFA (Setaria faberi (SETFA); 500 g/Ha): 100 | Control of weed species ECHCG ([5]; 500 g/Ha): 100 | Control of weed species DIGSA ([6]; 500 g/Ha): 100
